Experimental data published in ChEMBL document CHEMBL1201862, “PubChem BioAssay data set” (2004).
Calls of active or inactive are those of the source. For most assays here, no stated cut-off is given here; in the data, actives have a measured EC50 and inactives only a lower limit.

Key:
[1] = molecular target: T1, Replicative DNA helicase DnaB (Mycobacterium tuberculosis, UniProt P9WMR3); assay: DnaB intein splicing inhibitors, dose response, biochemical, cell-free fluorescence (AID 449749); type: functional
T1 sequence (P9WMR3 whole entry): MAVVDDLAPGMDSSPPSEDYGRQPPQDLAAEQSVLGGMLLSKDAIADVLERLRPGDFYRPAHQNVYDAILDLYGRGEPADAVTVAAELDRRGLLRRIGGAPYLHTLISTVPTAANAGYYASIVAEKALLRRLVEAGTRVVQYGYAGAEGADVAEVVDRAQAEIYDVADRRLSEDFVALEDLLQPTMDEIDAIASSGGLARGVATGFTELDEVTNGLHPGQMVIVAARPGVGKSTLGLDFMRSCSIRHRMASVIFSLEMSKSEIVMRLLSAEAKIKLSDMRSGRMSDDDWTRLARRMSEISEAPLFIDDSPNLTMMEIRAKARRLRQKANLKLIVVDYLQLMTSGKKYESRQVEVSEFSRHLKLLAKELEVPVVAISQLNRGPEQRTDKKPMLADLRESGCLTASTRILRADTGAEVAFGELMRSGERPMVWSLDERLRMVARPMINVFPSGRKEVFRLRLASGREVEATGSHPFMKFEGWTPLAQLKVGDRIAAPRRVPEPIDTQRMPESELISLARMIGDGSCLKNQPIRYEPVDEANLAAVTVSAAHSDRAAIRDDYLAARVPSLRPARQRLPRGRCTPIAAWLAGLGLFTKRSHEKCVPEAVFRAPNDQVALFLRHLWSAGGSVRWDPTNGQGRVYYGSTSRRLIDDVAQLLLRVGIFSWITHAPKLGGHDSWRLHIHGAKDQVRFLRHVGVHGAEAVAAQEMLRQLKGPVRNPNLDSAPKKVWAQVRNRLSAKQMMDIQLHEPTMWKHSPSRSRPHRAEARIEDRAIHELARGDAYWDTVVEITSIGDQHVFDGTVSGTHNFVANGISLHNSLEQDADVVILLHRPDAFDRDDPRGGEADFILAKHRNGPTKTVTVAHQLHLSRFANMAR

[2] = molecular target: T2, Protein RecA (Mycobacterium tuberculosis, UniProt P9WHJ3); assay: Fluorescence Cell-Free Homogeneous Dose Retest to Identify Inhibitors of RecA-Intein Splicing Activity. [Related pubchem assays (depositor defined):AID2097, AID2223, AID489010, AID492950]; type: functional
T2 sequence (P9WHJ3 whole entry): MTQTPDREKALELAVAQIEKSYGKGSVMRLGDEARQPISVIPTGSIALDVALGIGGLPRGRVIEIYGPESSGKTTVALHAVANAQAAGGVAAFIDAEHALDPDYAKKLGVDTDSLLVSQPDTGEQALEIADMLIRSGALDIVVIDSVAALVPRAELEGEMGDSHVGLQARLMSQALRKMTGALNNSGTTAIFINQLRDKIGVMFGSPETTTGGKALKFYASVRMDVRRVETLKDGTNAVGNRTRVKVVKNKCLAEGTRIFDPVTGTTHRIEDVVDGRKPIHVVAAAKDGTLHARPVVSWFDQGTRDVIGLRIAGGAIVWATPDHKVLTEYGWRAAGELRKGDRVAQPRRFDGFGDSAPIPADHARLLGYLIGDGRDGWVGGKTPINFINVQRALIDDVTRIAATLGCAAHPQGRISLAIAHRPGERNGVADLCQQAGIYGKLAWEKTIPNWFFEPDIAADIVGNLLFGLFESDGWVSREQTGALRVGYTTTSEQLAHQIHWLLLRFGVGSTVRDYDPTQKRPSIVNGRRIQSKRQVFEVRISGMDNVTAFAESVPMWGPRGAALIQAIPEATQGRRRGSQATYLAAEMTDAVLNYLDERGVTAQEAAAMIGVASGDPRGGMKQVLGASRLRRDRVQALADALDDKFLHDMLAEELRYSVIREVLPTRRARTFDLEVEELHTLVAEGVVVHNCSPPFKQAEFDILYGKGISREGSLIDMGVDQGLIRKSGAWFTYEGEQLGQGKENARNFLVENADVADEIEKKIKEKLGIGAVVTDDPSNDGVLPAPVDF

[3] = molecular target: T3, Streptokinase A (Streptococcus pyogenes serotype M1, UniProt P10520); assay: viability-normalized secreted streptokinase activity reduction – plasminogen activation absorbance, OD405, dose response (AID 1914); type: functional, Streptococcus pyogenes M1 GAS;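 further: secreted streptokinase activity via plasminogen activation per viability signal from cell pellet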
T3 sequence (P10520 whole entry): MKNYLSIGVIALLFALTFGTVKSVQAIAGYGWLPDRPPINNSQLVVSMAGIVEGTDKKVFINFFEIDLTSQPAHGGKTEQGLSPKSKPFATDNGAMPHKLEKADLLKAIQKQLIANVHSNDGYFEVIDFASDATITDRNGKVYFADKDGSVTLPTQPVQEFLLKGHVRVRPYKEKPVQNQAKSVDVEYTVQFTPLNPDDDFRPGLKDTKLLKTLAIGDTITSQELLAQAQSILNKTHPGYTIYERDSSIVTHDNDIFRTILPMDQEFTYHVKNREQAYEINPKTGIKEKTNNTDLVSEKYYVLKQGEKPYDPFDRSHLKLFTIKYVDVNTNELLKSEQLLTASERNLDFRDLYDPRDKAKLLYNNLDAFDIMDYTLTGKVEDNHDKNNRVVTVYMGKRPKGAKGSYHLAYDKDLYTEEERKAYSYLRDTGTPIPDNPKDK

[4] = Luminescence Cell-Based Dose Response HTS to Identify Inhibitors of 5'UTR Stem-Loop Driven Prion Protein mRNA Translation in H4 Neuroglioblastoma Cells. [Related pubchem assays: 1827 (Project Summary), 1813 (Primary HTS)]; type: functional
[5] = alpha-synuclein stem-loop luciferase translation blockers – H4 neuroglioma cells, luminescence, confirmation (AID 1988); type: functional, cell-based
[6] = luciferase reporter signal suppression in cells – H4 neuroglioma cells, luminescence, dose response (AID 1990); type: functional, cell-based
[7] = tested on: Streptococcus sp. 'group A'; assay: Streptococcus pyogenes SK(-)GAS viability under kanamycin – luminescence, BacTiterGlo, confirmation, counter-screen for streptokinase expression inhibitor project, dose response (AID 1900); type: functional, organism-based
[8] = cells; type: functional
[9] = tested on: Streptococcus; assay: GAS UMAA2166 growth inhibition – luminescence, BacTiterGlo, counter-screen for streptokinase expression inhibitor project, dose response (AID 1915); type: functional, organism-based;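 further: potency for reduction of bacterial viability or growth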
[10] = molecular target: Paired box protein Pax-8 (Homo sapiens, UniProt Q06710); assay: PAX8 transcriptional activity inhibition in RMG-I – RMG-I cells, luciferase, cherry-pick, dose response (AID 687027); type: functional, cell-based;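 further: luciferase reporter driven by Pax8 target thyroperoxidase promoter measured by SteadyGlo luminescence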
[11] = Luminescence Cell-Based Dose Retest to Confirm Inhibitors of Cancer Stem Cells. [Related pubchem assays (depositor defined):AID2717, AID2721]; type: functional; details: Homo sapiens
[12] = molecular target: T4, Heat shock factor protein 1 (Mus musculus, UniProt P38532); assay: decrease of HSF1-responsive luciferase luminescence – cell-based, NIH3T3, dose retest, confirmation (AID 2382); type: functional;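 further: NIH3T3 fibroblasts with HSF1-driven luciferase reporter stressed by proteasome inhibitor MG132; luminescence from HSF1-driven luciferase expression after 8 hours of MG132 stress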
T4 sequence (P38532 whole entry): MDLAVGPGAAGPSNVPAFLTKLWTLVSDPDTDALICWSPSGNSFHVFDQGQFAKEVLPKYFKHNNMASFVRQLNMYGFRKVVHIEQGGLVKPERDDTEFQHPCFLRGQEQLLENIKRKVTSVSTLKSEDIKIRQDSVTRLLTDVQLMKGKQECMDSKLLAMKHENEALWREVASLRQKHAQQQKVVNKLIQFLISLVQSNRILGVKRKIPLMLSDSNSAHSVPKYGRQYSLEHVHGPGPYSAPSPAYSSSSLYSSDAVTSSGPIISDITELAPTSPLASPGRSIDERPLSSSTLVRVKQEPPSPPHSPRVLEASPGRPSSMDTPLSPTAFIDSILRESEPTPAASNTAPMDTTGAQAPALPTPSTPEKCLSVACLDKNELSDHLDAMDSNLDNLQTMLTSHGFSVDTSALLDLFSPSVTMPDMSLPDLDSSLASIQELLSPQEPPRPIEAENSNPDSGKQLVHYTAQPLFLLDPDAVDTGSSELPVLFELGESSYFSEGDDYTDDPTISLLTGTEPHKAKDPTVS

[13] = molecular target: Cytochrome P450 2C9 (Homo sapiens, UniProt P11712)
Cytochrome P450 2C9, sequence (P11712 whole entry): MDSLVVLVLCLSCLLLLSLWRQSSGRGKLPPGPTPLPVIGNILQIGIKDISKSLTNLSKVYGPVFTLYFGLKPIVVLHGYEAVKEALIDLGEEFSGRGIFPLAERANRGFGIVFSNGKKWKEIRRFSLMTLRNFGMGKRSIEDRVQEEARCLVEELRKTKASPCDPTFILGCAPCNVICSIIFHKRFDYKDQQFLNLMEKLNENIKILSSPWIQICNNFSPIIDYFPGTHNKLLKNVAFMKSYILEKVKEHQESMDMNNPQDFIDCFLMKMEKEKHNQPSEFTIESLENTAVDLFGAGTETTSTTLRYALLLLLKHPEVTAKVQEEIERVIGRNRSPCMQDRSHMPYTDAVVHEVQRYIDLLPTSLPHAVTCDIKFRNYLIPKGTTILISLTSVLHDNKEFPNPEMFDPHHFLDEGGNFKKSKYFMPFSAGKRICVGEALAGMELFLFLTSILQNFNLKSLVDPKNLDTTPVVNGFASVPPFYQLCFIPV

Paired box protein Pax-8, sequence (Q06710 whole entry): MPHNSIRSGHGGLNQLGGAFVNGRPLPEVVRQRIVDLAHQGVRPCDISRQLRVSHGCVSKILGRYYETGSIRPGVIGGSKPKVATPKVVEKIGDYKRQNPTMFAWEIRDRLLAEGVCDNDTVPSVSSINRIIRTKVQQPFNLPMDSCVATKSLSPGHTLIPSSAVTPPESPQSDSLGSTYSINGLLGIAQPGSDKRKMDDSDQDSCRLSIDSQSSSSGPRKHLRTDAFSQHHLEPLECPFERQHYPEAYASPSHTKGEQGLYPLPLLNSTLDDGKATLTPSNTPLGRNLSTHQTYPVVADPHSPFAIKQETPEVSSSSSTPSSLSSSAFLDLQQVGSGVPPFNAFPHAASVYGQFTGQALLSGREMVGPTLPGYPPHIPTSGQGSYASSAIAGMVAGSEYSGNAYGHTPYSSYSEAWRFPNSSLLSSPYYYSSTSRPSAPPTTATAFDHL

## O=C1/C(=C/c2ccc(F)cc2)SC(=S)N1CC(=O)N1CCCCC1c1cccnc1 (stereo not drawn)
[1]
  AC50: 13.1 µM (active)
[2]
  EC50: 30.3 µM (active)

## C=C(C)COc1ccc(-c2n[nH]c(C)c2-c2ccccc2)c(O)c1
[3]
  EC50: 7.78 µM (active)

## CCNc1ccc(C(=O)N/N=C/c2c(C)nn(-c3ccccc3)c2N2CCCC2)cc1[N+](=O)[O-]
[4]
  EC50: 12.7 µM (active)
[5]
  EC50: 30.6 µM (active)
[6]
  EC50: 18.5 µM (active)

## CCN(CC)c1ccc(/C=N/n2c(S)nnc2-c2ccccc2Br)cc1
[4]
  EC50: > 120 µM (not active)
[5]
  EC50: > 120 µM (not active)
[6]
  EC50: > 120 µM (not active)

## CC(C)(C)c1ccc(OCCCC(=O)NC2=NCCS2)cc1
[7]
  EC50: 19.8 µM (active)
[8]
  IC50: 20.1 µM (active)
[3]
  EC50: > 150 µM (not active)
[9]
  EC50: > 150 µM (not active)

## O=C(CCc1ccc(S(=O)(=O)NCc2ccccc2)cc1)NCc1ccco1
[10]
  AC50: 47.9 µM (active)

## Cc1nn(Cc2ccccc2)c2c1C(c1ccncc1)C(C#N)=C(N)O2 (stereo not drawn)
[1]
  AC50: 11.1 µM (active)
[2]
  EC50: 3.43 µM (active)

## CC(=O)c1sc(NC(=O)CCS(=O)(=O)c2ccc(Cl)cc2)nc1C
[10]
  AC50: 5.01 µM (active)

## CC(=O)Nc1ccc(NC(=O)CSc2ncc(C(=O)Nc3ccccc3)c(=O)n2C)cc1
[1]
  AC50: 0.131 µM (active)
[2]
  EC50: 0.043 µM (active)
[11]
  AC50: 5.28 µM (active)

## COC(=O)[C@H]1[C@@H](O)[C@@]2(O)c3c(OC)cc(OC)cc3O[C@@]2(c2ccc(OC)cc2)[C@@H]1c1ccc(F)cc1
[10]
  AC50: 0.465 µM (active)

## CCC(=O)Oc1ccc2c(C)cc(=O)oc2c1C(=O)c1ccccc1
[10]
  AC50: 42.4 µM (active)

## CCCCc1ccc(NC(S)=NCCc2ccc(F)cc2)cc1
[3]
  EC50: 45 µM (active)
[9]
  EC50: > 150 µM (not active)

## COc1cc(/C=N/NC(=O)CC2(C)OCCCO2)ccc1OCc1ccccc1
[1]
  AC50: 2.64 µM (active)
[2]
  EC50: 0.81 µM (active)

## COCc1n[nH]c2c1C(c1ccc(OC)c(OC)c1)C(C#N)=C(N)O2 (stereo not drawn)
[1]
  AC50: 9.47 µM (active)
[2]
  EC50: 6.25 µM (active)

## CCOc1ccc(NC(=O)C(c2ccccn2)N(C(=O)CCl)c2ccc(F)cc2)cc1 (stereo not drawn)
[1]
  AC50: 7.1 µM (active)
[2]
  EC50: 2.67 µM (active)

## C[C@H]1CN([C@@H](C)CO)C(=O)Cc2cc(NC(=O)Nc3ccc4c(c3)OCO4)ccc2O[C@@H]1CN(C)Cc1ccc(-c2ccccc2)cc1
[10]
  AC50: 5.45 µM (active)

## CCOc1ccccc1CNC(=O)CCn1ccc2cc(S(=O)(=O)N3CCCCC3)ccc21
[12]
  EC50: > 195 µM (not active)

## O=C(Cn1cnc2c(oc3nc4c(cc32)CCCC4)c1=O)Nc1cccc(Cl)c1
[4]
  EC50: > 120 µM (not active)
[5]
  EC50: 10.2 µM (active)
[6]
  EC50: 13 µM (active)

## CCOC(=O)c1ccc(NC(=S)NC(=O)C2CCCC2)cc1
[12]
  EC50: > 195 µM (not active)

## COc1ccc(C(=O)NC2CCCc3c2cnn3-c2ccccc2F)o1 (stereo not drawn)
[4]
  EC50: 18.9 µM (active)
[5]
  EC50: 22.2 µM (active)
[6]
  EC50: 41 µM (active)

## Cc1ccc(NC(=O)COC(=O)Cn2cnc3ccccc32)cc1S(=O)(=O)N(C)C
[12]
  EC50: > 195 µM (not active)

## CC(NC(=O)C12CC3CC(CC(C3)C1)C2)C(=O)N/N=C/C1=C(N2CCOCC2)C(=C\c2ccccc2)/CC1 (stereo not drawn)
[4]
  EC50: > 120 µM (not active)
[5]
  EC50: 16.4 µM (active)
[6]
  EC50: 15.7 µM (active)

## NS(=O)(=O)c1ccc(NN=C2C(=O)NC(=S)NC2=O)cc1
[1]
  AC50: 51.7 µM (active)
[2]
  EC50: 15.5 µM (active)

## O=C(Nc1cccc(Cl)c1Cl)c1snnc1-c1ccccc1
[13]
  AC50: 3.16 µM (inconclusive)
[12]
  EC50: > 195 µM (not active)

## Cc1cc(-n2c(SCC(=O)NCc3cccs3)nc3nnc(C)c-3c2N)ccc1Cl
[4]
  EC50: > 120 µM (not active)
[5]
  EC50: 15.3 µM (active)
[6]
  EC50: 14.4 µM (active)

## COCCCn1c(-c2ccco2)nc2ccccc2c1=O
[12]
  EC50: > 195 µM (not active)

## CCOc1ccc(S(=O)(=O)N2CCCC(C(=O)NCc3cccnc3)C2)cc1C (stereo not drawn)
[4]
  EC50: 65.6 µM (active)
[5]
  EC50: 19.3 µM (active)
[6]
  EC50: 14.2 µM (active)

## CCc1cc(C(=O)N2CCCC(CCC(=O)NCc3cccc(OC)c3)C2)no1 (stereo not drawn)
[7]
  EC50: > 150 µM (not active)
[3]
  EC50: > 150 µM (not active)
[9]
  EC50: > 150 µM (not active)

## CC1(C)CC2CC(C)(CN2C(=O)CCCN2C(=O)c3ccccc3C2=O)C1 (stereo not drawn)
[12]
  EC50: > 195 µM (not active)
